{
  "source": "patent US11976280B2",
  "about": "“SMAC/Diablo inhibitors useful for treating cancer” (THE NATIONAL INSTITUTE FOR BIOTECHNOLOGY IN THE NEGEV LTD., priority 2017, dated 2024)",
  "key": {"[1]": {"system": "A549 cells-derived tumors", "experiment": "q-PCR of lipid synthesis genes in tumors", "format": "in vivo, human", "description": "(§1) Total RNA was isolated from cells using an RNeasy mini kit (Qiagen) according to the manufacturer's instructions. Complementary DNA was synthesized from 1 μg total RNA using a Verso cDNA synthesis kit (Thermo Scientific). q-PCR was performed using specific primers (KiCqStart Primers; Sigma Aldrich) in triplicates, using Power SYBER green master mix (Applied Biosystems, Foster City, CA). The levels of the target genes were normalized relative to β-actin mRNA levels. Samples were amplified by a 7300 Real Time PCR System (Applied Biosystems) 95° C. for 2 minutes and for 40 cycles using the following PCR parameters: 95° C. for 15 seconds, 60° C. for 1 minute, and 72° C. for 1 minute. The copy numbers for each sample were calculated by the CT-based calibrated standard curve method. The mean fold changes (±SEM) of the three replicates were calculated.\nTherefore, using q-PCR, the levels of genes encoding enzymes associated with diacylglycerol (DAG) synthesis, such as glycerol kinase (GK), and the mitochondrial proteins glycerol-3-phosphate acyltransferase 1 and 4 (GPAM1, GPAM4) were analyzed."}, "A549 cells": {"system": "A549 cells", "experiment": "Ki-67 positive cells, immunofluorescence staining", "format": "cell-based, human", "conditions": "50 nM"}, "[2]": {"system": "A549-derived xenograft tumors", "experiment": "TUNEL and q-PCR of apoptosis-associated genes in A549-derived xenograft tumors", "format": "in vivo, mice", "description": "as §1\nTumor sections were processed for the TUNEL assay using the DeadEnd Fluorometric TUNEL system (Promega, Madison, WI) according to the manufacturer's instructions. […]\nAs SMAC/Diablo released from mitochondria during apoptosis binds to and counters the activities of IAPs leading to the release of bound caspases (Verhagen, A. M., et al. 2000. Cell 102, 43-53), the expression levels of XIAP1, cIAP1, and cIAP2, as well as of pro-apoptotic proteins including caspases 3, 8, and 9, Cyto c, and AIF were analyzed."}},
  "note": "d = 2'-deoxy (DNA); r = 2'-OH (RNA)",
  "data": [
    {"substance": "si-hSMAC-A: siRNA to human SMAC/Diablo; sense 5′AAGCGGUGUUUCUCAGAAUUGtt3′ (SEQ ID NO:20), antisense 5′AACAAUUCUGAGAAACCCGCtt3′ (SEQ ID NO:21) (sense AAGCGGUGUUUCUCAGAAUUGTT; antisense AACAAUUCUGAGAAACCCGCTT; sense: sugars from the 5' end r21 d2, backbone not given here; antisense: sugars from the 5' end r20 d2, backbone not given here)", "values": [
      {"measurement": "mRNA of GK, GPAM1, GPAM4 (DAG synthesis)", "setting": "[1]", "result": "decreased"},
      {"measurement": "mRNA of PEMT, CHKA, CHPT1, PLA2G1B", "setting": "[1]", "result": "increased"},
      {"measurement": "decrease in Ki-67 positive cells", "setting": "A549 cells", "result": "about 85%"},
      {"measurement": "apoptosis, TUNEL staining", "setting": "[2]; mouse, in vivo", "result": "lack of significant apoptosis"},
      {"measurement": "mRNA expression levels of XIAP1, cIAP1, cIAP2, caspases 3, 8, 9, Cyto c, AIF", "setting": "[2]; q-PCR", "result": "noticeably decreased"}
    ]}
  ]
}
